Data from the kinase profiling compilation of Christmann-Franck et al. (2016).

Tests used:
Test in all cases: KINOMEscan competition binding
Conditions in all cases: compound 10.0 µM
[1] = target: PTK6 (human) (UniProt Q13882)
[2] = target: FER (human) (UniProt P16591)
[3] = target: SIK1 (human) (UniProt P57059)
[4] = target: CSF1R (human) (UniProt P07333)
[5] = target: EPHA3 (human) (UniProt P29320)
[6] = target: MAP3K3 (human) (UniProt Q99759)
[7] = target: PRKAA1 (human) (UniProt Q13131)
[8] = tested on: EGFR (human), P00533 [P753S; 747-752 del]
[9] = tested on: RET (human), P07949 [V804L]
RET (human), P07949 [V804L], sequence (P07949 whole entry V804L, looked up): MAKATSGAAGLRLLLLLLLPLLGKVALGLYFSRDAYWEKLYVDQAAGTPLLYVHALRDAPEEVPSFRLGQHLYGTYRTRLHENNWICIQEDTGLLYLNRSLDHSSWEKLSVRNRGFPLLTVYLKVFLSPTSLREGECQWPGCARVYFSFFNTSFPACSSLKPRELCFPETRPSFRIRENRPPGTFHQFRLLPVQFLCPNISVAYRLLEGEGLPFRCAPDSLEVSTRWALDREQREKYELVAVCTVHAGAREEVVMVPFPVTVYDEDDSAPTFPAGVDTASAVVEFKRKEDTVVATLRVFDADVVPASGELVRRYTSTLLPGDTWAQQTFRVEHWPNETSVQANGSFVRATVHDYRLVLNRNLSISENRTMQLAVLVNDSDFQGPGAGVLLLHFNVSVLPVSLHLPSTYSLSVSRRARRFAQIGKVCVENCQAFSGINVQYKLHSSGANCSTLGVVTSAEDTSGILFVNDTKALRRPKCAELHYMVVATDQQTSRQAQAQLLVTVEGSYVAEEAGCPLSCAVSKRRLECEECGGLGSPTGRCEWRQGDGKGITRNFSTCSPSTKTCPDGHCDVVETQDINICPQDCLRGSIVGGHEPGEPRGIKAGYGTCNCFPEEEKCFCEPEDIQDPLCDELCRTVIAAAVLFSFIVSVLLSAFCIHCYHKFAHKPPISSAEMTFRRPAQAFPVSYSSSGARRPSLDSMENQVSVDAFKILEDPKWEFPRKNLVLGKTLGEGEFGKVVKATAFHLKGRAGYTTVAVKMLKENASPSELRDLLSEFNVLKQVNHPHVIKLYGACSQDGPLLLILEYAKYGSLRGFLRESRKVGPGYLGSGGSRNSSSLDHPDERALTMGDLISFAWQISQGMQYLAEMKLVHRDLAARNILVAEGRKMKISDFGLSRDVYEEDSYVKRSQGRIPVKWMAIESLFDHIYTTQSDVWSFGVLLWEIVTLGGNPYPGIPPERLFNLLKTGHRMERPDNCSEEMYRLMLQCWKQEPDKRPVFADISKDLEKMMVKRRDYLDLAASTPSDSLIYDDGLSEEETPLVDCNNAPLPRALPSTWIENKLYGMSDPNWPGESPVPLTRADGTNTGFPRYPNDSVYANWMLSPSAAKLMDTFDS

[10] = tested on: ABL1 (human), P00519 [F317L]
ABL1 (human), P00519 [F317L], sequence (P00519 whole entry F317L, looked up): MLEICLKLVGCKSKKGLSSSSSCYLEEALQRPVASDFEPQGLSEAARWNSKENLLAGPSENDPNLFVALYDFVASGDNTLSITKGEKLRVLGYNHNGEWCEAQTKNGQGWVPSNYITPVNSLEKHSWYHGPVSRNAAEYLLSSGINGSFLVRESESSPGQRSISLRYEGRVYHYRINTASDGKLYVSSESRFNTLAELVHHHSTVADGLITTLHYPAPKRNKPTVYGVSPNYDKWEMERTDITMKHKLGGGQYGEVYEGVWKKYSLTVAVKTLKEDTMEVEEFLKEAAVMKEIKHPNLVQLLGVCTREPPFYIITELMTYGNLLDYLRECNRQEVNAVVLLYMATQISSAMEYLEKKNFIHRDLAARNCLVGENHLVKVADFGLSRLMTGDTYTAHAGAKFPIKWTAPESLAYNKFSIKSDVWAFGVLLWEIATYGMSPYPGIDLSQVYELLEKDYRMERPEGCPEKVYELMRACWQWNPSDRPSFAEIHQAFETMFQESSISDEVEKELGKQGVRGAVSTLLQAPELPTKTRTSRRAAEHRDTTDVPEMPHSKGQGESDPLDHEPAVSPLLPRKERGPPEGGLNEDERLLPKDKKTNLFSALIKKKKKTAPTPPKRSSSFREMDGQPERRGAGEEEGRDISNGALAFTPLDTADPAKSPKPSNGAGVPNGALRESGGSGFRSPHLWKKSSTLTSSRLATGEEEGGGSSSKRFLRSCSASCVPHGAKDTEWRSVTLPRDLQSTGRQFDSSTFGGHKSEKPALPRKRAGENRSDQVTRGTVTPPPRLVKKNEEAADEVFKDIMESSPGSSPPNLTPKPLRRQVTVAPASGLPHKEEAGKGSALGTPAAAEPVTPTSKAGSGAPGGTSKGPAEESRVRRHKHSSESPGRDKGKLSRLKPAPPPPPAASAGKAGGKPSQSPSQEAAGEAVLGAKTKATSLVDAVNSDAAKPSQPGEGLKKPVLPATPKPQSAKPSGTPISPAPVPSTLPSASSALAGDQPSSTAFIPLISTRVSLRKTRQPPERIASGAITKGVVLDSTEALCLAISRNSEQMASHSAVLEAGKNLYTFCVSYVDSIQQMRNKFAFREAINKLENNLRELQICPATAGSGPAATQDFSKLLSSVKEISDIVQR

[11] = target: SRMS (human) (UniProt Q9H3Y6)
[12] = target: MAPK13 (human) (UniProt O15264)
[13] = tested on: EGFR (human), P00533 [752-759 del]
[14] = target: BLK (human) (UniProt P51451)
[15] = target: CAMK1G (human) (UniProt Q96NX5)
[16] = tested on: FGFR3 (human), P22607 [G697C]
FGFR3 (human), P22607 [G697C], sequence (P22607 whole entry G697C, looked up): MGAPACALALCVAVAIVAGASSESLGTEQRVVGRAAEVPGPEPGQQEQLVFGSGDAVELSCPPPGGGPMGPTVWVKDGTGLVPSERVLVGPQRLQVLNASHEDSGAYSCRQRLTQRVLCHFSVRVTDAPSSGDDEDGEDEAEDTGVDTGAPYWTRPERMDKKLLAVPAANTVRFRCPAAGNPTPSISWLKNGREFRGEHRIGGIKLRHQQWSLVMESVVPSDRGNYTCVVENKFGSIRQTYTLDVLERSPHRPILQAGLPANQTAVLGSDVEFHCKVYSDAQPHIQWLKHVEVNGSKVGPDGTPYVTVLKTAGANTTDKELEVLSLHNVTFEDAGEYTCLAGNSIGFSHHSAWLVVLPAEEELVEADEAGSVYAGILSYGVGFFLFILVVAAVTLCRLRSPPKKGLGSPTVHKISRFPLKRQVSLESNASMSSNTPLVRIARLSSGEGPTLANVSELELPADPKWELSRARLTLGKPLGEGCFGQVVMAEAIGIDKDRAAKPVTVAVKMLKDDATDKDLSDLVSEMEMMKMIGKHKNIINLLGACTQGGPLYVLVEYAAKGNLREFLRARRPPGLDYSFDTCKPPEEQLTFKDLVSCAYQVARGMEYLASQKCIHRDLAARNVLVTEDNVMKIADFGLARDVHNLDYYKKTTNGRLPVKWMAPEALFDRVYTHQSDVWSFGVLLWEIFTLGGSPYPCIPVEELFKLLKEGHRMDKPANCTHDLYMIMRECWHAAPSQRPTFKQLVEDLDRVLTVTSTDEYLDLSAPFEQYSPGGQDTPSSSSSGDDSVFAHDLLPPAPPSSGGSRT

[17] = tested on: KIT (human), P10721 [V559D/T670I]
[18] = target: STK38L (human) (UniProt Q9Y2H1)
[19] = tested on: EGFR (human), P00533 [747-751 del / S ins]
[20] = target: FYN (human) (UniProt P06241)
[21] = target: PDGFRB (human) (UniProt P09619)
[22] = target: FGFR3 (human) (UniProt P22607)
FGFR3 (human), sequence (P22607 whole entry, looked up): as the sequence (P22607 whole entry G697C, looked up) above, with C697G counted along it

[23] = target: MAPK12 (human) (UniProt P53778)
MAPK12 (human), sequence (P53778 whole entry, looked up): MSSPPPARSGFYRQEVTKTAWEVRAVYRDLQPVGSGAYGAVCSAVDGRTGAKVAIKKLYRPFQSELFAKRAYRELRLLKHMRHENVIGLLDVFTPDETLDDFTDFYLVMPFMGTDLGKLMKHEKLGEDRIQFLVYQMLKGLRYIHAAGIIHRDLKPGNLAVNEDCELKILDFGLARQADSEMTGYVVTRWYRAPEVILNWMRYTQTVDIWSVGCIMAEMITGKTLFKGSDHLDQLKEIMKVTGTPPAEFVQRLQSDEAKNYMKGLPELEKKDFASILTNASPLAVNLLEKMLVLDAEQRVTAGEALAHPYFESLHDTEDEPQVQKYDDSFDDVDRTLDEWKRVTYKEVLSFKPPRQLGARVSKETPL

[24] = target: RIPK1 (human) (UniProt Q13546)
[25] = target: YES1 (human) (UniProt P07947)
[26] = target: CHUK (human) (UniProt O15111)
CHUK (human), sequence (O15111 whole entry, looked up): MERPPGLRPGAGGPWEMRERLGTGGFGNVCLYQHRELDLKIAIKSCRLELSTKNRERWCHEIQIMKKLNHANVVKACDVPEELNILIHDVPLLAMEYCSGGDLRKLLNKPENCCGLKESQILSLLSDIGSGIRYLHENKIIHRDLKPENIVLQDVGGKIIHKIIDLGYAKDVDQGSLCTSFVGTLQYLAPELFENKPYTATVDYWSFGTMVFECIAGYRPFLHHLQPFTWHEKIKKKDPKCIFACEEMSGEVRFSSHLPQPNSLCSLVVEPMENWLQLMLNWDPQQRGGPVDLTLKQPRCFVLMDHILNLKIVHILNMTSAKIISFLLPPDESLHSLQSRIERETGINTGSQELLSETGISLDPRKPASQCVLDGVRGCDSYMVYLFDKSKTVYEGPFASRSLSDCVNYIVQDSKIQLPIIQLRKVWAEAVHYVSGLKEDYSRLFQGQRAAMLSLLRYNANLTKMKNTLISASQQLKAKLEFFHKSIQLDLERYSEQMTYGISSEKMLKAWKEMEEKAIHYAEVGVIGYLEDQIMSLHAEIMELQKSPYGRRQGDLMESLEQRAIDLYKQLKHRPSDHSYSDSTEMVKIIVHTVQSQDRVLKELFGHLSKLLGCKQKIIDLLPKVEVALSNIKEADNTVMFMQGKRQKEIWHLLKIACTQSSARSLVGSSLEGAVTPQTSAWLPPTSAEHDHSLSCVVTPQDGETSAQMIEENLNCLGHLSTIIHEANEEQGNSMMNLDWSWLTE

[27] = target: MAPK11 (human) (UniProt Q15759)
MAPK11 (human), sequence (Q15759 whole entry, looked up): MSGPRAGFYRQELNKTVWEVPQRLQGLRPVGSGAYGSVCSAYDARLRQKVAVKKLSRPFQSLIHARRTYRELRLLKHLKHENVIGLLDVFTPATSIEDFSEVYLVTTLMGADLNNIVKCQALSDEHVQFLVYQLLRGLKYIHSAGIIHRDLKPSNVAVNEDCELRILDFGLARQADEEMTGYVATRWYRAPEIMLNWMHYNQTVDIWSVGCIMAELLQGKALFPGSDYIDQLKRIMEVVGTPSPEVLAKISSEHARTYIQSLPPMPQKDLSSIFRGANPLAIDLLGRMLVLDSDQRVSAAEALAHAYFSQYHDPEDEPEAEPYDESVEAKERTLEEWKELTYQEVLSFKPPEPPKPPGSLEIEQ

[28] = target: INSR (human) (UniProt P06213)
[29] = tested on: RET (human), P07949 [M918T]
[30] = target: MLTK (human) (UniProt Q9NYL2)
[31] = target: STK35 (human) (UniProt Q8TDR2)
[32] = target: FRK (human) (UniProt P42685)
FRK (human), sequence (P42685 whole entry, looked up): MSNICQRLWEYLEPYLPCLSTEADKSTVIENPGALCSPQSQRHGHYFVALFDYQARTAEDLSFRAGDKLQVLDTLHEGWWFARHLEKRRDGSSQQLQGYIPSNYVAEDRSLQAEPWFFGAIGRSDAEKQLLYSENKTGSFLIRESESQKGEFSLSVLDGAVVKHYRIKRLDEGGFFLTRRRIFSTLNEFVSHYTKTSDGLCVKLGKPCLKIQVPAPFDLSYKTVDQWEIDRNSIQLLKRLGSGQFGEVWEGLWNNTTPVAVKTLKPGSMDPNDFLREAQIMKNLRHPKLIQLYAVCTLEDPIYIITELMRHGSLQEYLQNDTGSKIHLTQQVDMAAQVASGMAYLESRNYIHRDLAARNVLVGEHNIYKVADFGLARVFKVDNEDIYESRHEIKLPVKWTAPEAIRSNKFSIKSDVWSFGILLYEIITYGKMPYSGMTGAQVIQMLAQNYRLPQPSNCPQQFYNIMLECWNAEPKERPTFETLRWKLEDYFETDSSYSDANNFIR

[33] = target: TAOK1 (human) (UniProt Q7L7X3)
[34] = target: PRKCE (human) (UniProt Q02156)
[35] = target: CAMKK2 (human) (UniProt Q96RR4)
[36] = tested on: FLT3 (human), P36888 [ITD]
[37] = target: STK10 (human) (UniProt O94804)
[38] = target: TTK (human) (UniProt P33981)
[39] = target: INSRR (human) (UniProt P14616)
[40] = tested on: EGFR (human), P00533 [L861Q]
[41] = target: ABL1 (human) (UniProt P00519)

- kinase still bound, per cent of control [1]: 28%
- kinase still bound, per cent of control [2]: 0.5%
- kinase still bound, per cent of control [3]: 5.3%
- kinase still bound, per cent of control [4]: 0%
- kinase still bound, per cent of control [5]: 3.4%
- kinase still bound, per cent of control [6]: 12%
- kinase still bound, per cent of control [7]: 33%
- kinase still bound, per cent of control [8]: 1.2%
- kinase still bound, per cent of control [9]: 0.8%
- kinase still bound, per cent of control [10]: 0.1%
- kinase still bound, per cent of control [11]: 4.6%
- kinase still bound, per cent of control [12]: 0.55%
- kinase still bound, per cent of control [13]: 4.6%
- kinase still bound, per cent of control [14]: 0.45%
- kinase still bound, per cent of control [15]: 20%
- kinase still bound, per cent of control [16]: 16%
- kinase still bound, per cent of control [17]: 0.05%
- kinase still bound, per cent of control [18]: 6.8%
- kinase still bound, per cent of control [19]: 1.1%
- kinase still bound, per cent of control [20]: 1.6%
- kinase still bound, per cent of control [21]: 0%
- kinase still bound, per cent of control [22]: 9.4%
- kinase still bound, per cent of control [23]: 0%
- kinase still bound, per cent of control [24]: 0%
- kinase still bound, per cent of control [25]: 1.6%
- kinase still bound, per cent of control [26]: 0.95%
- kinase still bound, per cent of control [27]: 0%
- kinase still bound, per cent of control [28]: 30%
- kinase still bound, per cent of control [29]: 0%
- kinase still bound, per cent of control [30]: 0.35%
- kinase still bound, per cent of control [31]: 3%
- kinase still bound, per cent of control [32]: 0.7%
- kinase still bound, per cent of control [33]: 3%
- kinase still bound, per cent of control [34]: 20%
- kinase still bound, per cent of control [35]: 28%
- kinase still bound, per cent of control [36]: 0.7%
- kinase still bound, per cent of control [37]: 0%
- kinase still bound, per cent of control [38]: 24%
- kinase still bound, per cent of control [39]: 23%
- kinase still bound, per cent of control [40]: 15%
- kinase still bound, per cent of control [41]: 0.1%
Compound: CCN1CCN(Cc2ccc(NC(=O)c3ccc(C)c(Oc4ccnc5[nH]ccc45)c3)cc2C(F)(F)F)CC1
